Measured values as given in patent US11638736B2, “Compositions for preventing or treating diseases or disorders associated with neuro-inflammation, neuro-apoptosis, or neuro- oxidative damage and uses thereof” (priority 2018, dated 2023).

Key:
iNos [1] = type: in vivo, C57BL/6 mice; conditions: brain
Description: (§1) All experimental animals were approved by the Institutional Animal Care and Use Committee at Konkuk University (IACUC approval number, KU18045), Seoul, Republic of Korea.

cytochrome C [2] = type: in vivo, C57BL/6 mice; conditions: MPTP-intoxicated mice, brain
Description: as §1

SOD = type: in vivo, C57BL/6 mice; conditions: MPTP-treated mice, brain
Description: as §1

cytochrome C [3] = assay: Western blotting, MPTP-treated SH-SY5Y cells: cytochrome C; type: cell-based, human; conditions: MPTP-intoxicated SH-SY5Y cells
Protocol: (§2) Human Neuroblastoma Cells (SH-SY5Y) (Korean Cell Bank, Seoul, Korea) were cultured in Dulbecco's modified Eagle's medium containing 10% fetal bovine serum (Hyclone, Logan, Utah, USA) and 1% penicillin-streptomycin (GIBCO, Grand Island, N.Y., USA) in a humidified incubator with 5% CO2 at 37° C.

COX-2 = type: in vivo, SD rats
Protocol: (§3) Four-week-old male SD rats were purchased from Rion Bio, Inc. and were housed in a temperature-controlled (21-22° C.) and light-controlled (12 h light/dark cycle) environment with 70% humidity; they were given free access to water and rodent chow. […] The brains were dissected and analyzed by histological and western blotting analysis.
(§4) Rat brains were lysed in radioimmunoprecipitation assay lysis buffer containing protease inhibitor (Roche, Mannheim, Germany) and centrifuged at 10,000×g for 30 min at 4° C. Total protein levels were determined using a Bio-Rad protein kit (Bio-Rad, Hercules, Calif., USA). The proteins were separated by electrophoresis in a 10-15% sodium dodecyl sulfate-polyacrylamide gel and transferred onto the Immobilon-P transfer membrane (EMD Millipore Co., Bedford, Mass., USA). The membrane was blocked with 5% bovine serum albumin (Sigma-Aldrich). […] Protein bands were detected using a chemiluminescence method (Thermo Fisher Scientific) by a C-DiGit Blot Scanner (Li-COR, Lincoln, Nebr., USA), and their densities were quantified using ImageJ (NIH, Rockville, Md., USA). […]

TH-positive cells = assay: Immunohistochemical staining of tyrosine hydroxylase (TH) neurons, MPTP-intoxicated mice; type: in vivo, C57BL/6 mice
Protocol: Brain sections (4 μm thick) were deparaffinized in xylene-alcohol series for 5 min each, with subsequent recovery of antigenic sites on steam fluent (pot value) for 30 min. The slides were washed twice for 5 min with 1× phosphate-buffered saline (PBS) and then immersed in 0.3% hydrogen peroxide for 30 min at 25° C. to block endogenous peroxidase activity. The sections were incubated with 10% goat serum (for polyclonal antibodies) for 30 min and then incubated at 4° C. with the TH primary antibody (Abcam, Cambridge, UK) for 24 h. Subsequently, all samples were incubated with biotinylated goat anti-rabbit IgG (H+L) horseradish peroxidase (HRP)-conjugated antibodies (Zymax). The sections were incubated with 3,3-diaminobenzidine (Vectro Laboratories, Inc., Burlingame, Calif., USA) for 10 min at 37° C. Finally, the tissue sections were counterstained with hematoxylin for 2 min, dehydrated with an alcohol-xylene series, and mounted with coverslips using Permount mounting medium (Thermo Fisher Scientific). The specimens were examined using a Nikon Eclipse TS100 microscope (Nikon, Tokyo, Japan) at 200× magnification, and the microscopy images were analyzed using the OptiView image analysis software (Korea Lab Tech, Seongnam-si, Republic of Korea). Immunopositive neurons were counted manually.

Mac-1 [4] = assay: Western blotting, MPTP-treated SH-SY5Y cells: Mac-1; type: cell-based, human; conditions: 2-mM MPTP-intoxicated SH-SY5Y cells
Protocol: as §2

Mac-1 [5] = system: Mac-1
Protocol: as §3, §4

SH-SY5Y cells = assay: MTT cell viability in MPTP-treated SH-SY5Y cells; type: cell-based, human; conditions: 24 h
Protocol: 1-Methyl-4-phenylpyridinium (MPP+) induces a severe parkinsonian-like syndrome and a significant reduction in dopaminergic cells by the selective inhibition of complex I in the mitochondrial electron transport chain.
as §2
SH-SY5Y ([…]) cells were cultured in a 96-well plate, and cell viability was determined using the MTT (Promega, Madison, Wis., USA) assay as described previously. […] The MTT solution was then added, followed by incubation at 37° C. for 4 h. The supernatant was removed, and the formed formazan crystals were dissolved in dimethyl sulfoxide. The absorbance of the resulting solution was measured at 540 nm using a UVM 340 microplate reader (Biochrom Asys, Cambridge, UK).

iNOS [6] = assay: Western blotting of midbrain, MPTP-treated rats: iNOS; type: in vivo, SD rats; conditions: levodopa 10 mg/kg
Protocol: as §3, §4

Bcl-2 = assay: Western blotting of brain, MPTP-treated mice: Bcl-2; type: in vivo, C57BL/6 mice; conditions: Levodopa (positive control)
Description: as §1

p-IκB-α [7] = assay: Western blotting of midbrain, MPTP-treated rats: p-IκB-α; type: in vivo, SD rats; conditions: levodopa 10 mg/kg
Protocol: as §3, §4

p-IκB-α [8] = assay: Western blotting of brain, MPTP-treated mice: p-IκB-α; type: in vivo, C57BL/6 mice; conditions: Levodopa
Description: as §1

With `CN1CC=C(c2ccccc2)CC1` [MPTP, 1-methyl-4-phenyl-1,2,3,6-tetrahydropyridine] the “iNos protein expression level elevated by, compared with sham group” value (iNos [1]; MPTP-treated mice) was 0.44 folds, the “protein expression level of cytochrome C upregulated by, compared with sham mice” value (cytochrome C [2]) was 0.54 folds and the “expression level of SOD lower than in sham group” value (SOD) was 2.3 folds. The “protein expression level of cytochrome C upregulated” value (cytochrome C [3]) was 10 folds, the “COX-2 protein overexpressed, with reference to sham operated group” value (COX-2; MPTP-intoxicated rats) was 6 fold and the “number of TH-positive cells reduced, compared with sham group” value (TH-positive cells; MPTP-intoxicated mice, 20 mg/kg/day) was “more than two-fold”. For the same compound, the “Mac-1 protein expression level elevated by, compared with normal cells” value (Mac-1 [4]) was 0.8 folds, the “expression of Mac-1 protein elevated, compared with sham groups” value (Mac-1 [5]; MPTP control rats) was 6.4 fold and the cell death (SH-SY5Y cells; 1 mM MPTP) was 29.05%. For the same compound, the cell death (SH-SY5Y cells; 2 mM MPTP) was 68.89%.

`N[C@@H](Cc1ccc(O)c(O)c1)C(=O)O` [Levodopa] was tested, and the “elevation of iNos expression” value (iNos [1]; MPTP mice, Levodopa treatment) was “inhibited”, the “expression level of COX-2 downregulated” value (COX-2; MPTP rats, levodopa 10 mg/kg) was 1.7 fold and the “elevated iNOS expression inhibited vs MPTP control” value (iNOS [6]) was 2.9 fold. For the same compound, the “effects of MPTP on Bcl-2 protein expression” value (Bcl-2) was “significantly reversed”, the “p-IκB-α level reduced, compared to MPTP control group” value (p-IκB-α [7]) was 1.2 fold and the “numbers of TH-positive cells vs MPTP-intoxicated group” value (TH-positive cells; MPTP mice, levodopa 2 mg/kg oral) was “significantly elevated”. For the same compound, the “increased p-IκB-α level” value (p-IκB-α [8]) was “slightly restored” and the “elevated level of MAC-1 attenuated vs MPTP control” value (Mac-1 [5]; MPTP rats, levodopa 10 mg/kg) was 1.9 fold.
